These are literature values, as cited in patent publication US20060258708A1, “Method for treating Parkinson's disease and other neurological diseases” (priority 2005, published 2006).

Series [1] deals with tumor necrosis factor alpha production by stimulated monocytes.
The conditions of series [2]: racemic thalidomide, animals.
The conditions of series [3]: humans.

As for `O=C1CCC(N2C(=O)c3ccccc3C2=O)C(=O)N1` (racemic) [Thalidomide, N-phthalidoglutarimide], in series [1], the “effect on tumor necrosis factor alpha production” value is on record as “inhibit”. For the same molecule, the “toxicity in a series of animal studies” value in series [2] is “has not been toxic”. Besides, in series [3] (100 to 200 mg ingested), the maximal blood concentration was 0.9 to 1.5 mg/L and the “time at which maximal blood concentration is attained” value is 4 to 6 h. For the same molecule, the oral absorption entry in series [3] (orally administered) is “poorly absorbed”.
